This note sets out measurements from patent US5095014A, “3-(2-chloro-4-(trifluoromethyl)phenoxy)-1-azetidine carboxamides having anticonvulsant activity” (A. H. Robins Company, Incorporated, priority 1990, dated 1992).

Assay [1] relates to tonic seizures (electrically induced convulsions). The assay is described as follows: Maximal Electroshock (percent protection from tonic seizures). In kind it is in vivo. Conditions: mice; for ED50: Mus musculus, ip, 0.5 h, intraperitoneal, 30 minutes prior to electrical challenge. As for the experimental part: (§1) The pharmacological tests used are (1) maximal electroshock and (2) pentylenetetrazole (Metrazole®) chemical challenge where the percent protection afforded by the test compounds against convulsions induced by electrical stimulus or by the drug Metrazole is determined. These test procedures are described further hereinbelow.
(§2) The pharmacological test data are expressed either as an ED50 (mg/kg) or percent protection/dose (mg/kg) for test compounds administered intraperitoneally (IP) in mice.
Adult female mice in groups of eight were administered the test drug intraperitoneally (usually 100 mg/kg initially for screening) in liquid carrier (10 mg/ml), usually physiological saline or water, 30 minutes prior to electrical challenge. Animals were challenged electrically by placing brass electrodes on the corneas and applying an electrical stimulus (60 Hz, 5 m sec. pulse width, 34 mA intensity) for 0.2 seconds by way of a Grass Stimulator® and constant current unit and a Hunter Timer®. The absence of tonic seizures upon cessation of the stimuli was scored as protection in that animal. The number of animals protected from tonic seizures at a given dose of test drug was determined. […] EXP. THER. 96, 99-113.
For orientation: In the maximal electroshock model the usual endpoint is tonic extension of the hind limbs.

Assay [2] has as its system pentylenetetrazol-induced convulsions. The assay is described as follows: Metrazole Chemical Challenge (Swinyard Method). It counts as in vivo. Particulars: mice; for ED50: Mus musculus, ip, 0.5 h, intraperitoneal, 1/2 hour before Metrazole 80 mg/kg S.C. As for the experimental part:
as §1, §2
Groups of 8 adult female mice were randomly assigned to dosage groups according to the method of Steel, R. G. D., and Torrie, J. H. (1960) in "Principles and Procedures of Statistics", McGraw-Hill Book Company, Inc., pp 99-100, pp 428-31. Each mouse was identified with a color code on its tail. The test compounds were administered as solutions or suspensions in 10 ml/kg mouse body weight of 0.5% aqueous methyl cellulose within 15 minutes of preparation of the suspension. Metrazole® (pentylenetetrazol) was prepared as a solution in physiological saline. The mice were not fasted prior to the test. Eight mice were tested at each dosage level.
Each mouse received one dose of the test drug (usually 100 mg/kg for screening) in the 0.5% aqueous methylcellulose or the control article (0.5% aqueous methylcellulose alone) intraperitoneally. Metrazole (80 mg/kg S.C.) was then given in a loose fold of skin on the back of the neck, 1/2 hour after the test compound or control article was given. All injections were given in a volume of 10 ml/kg mouse body weight. […] Anticonvulsant data were tabulated as the percent protection, i.e., [formula] […] Hefner Publishing Co.

In general, ED50 refers to the midpoint of the dose-response relation. Read a low ED50 as greater potency.

In the case of `CNC(=O)N1CC(Oc2ccc(C(F)(F)F)cc2Cl)C1` [Example 2, 3-[2-Chloro-4-(trifluoromethyl)phenoxy]-N-methyl-1-azetidinecarboxamide], the ED50 stood at 6.4 mg/kg in assay [1] and 11.3 mg/kg in assay [2].
Take `CNC(=O)N1CC(Oc2ccccc2C(F)(F)F)C1` [Example 5, 3-[2-(Trifluoromethyl)phenoxy]-N-methyl-1-azetidinecarboxamide]: in assay [1], the ED50 turned out to be 125 mg/kg. In assay [2] (dose 120 mg/kg IP), this compound showed a Metrazole % protected of 0%.
`CNC(=O)N1CC(Oc2ccc(Cl)c(Cl)c2)C1` [Example 20, 3-(3,4-Dichlorophenoxy)-N-methyl-1-azetidinecarboxamide]: the ED50 in assay [1] was determined as 39.5 mg/kg; in assay [2], 49.5 mg/kg.
The compound `Cc1cccc(Cl)c1OC1CN(C(N)=O)C1` [Example 14, 3-(2-Chloro-6-methylphenoxy)-1-azetidinecarboxamide] registered an ED50 in assay [1] of 81.5 mg/kg.
In assay [1] (dose 56.2 mg/kg IP), `CNC(=O)N1CC(Oc2ccccc2Cl)C1` [Example 8, 3-(2-Chlorophenoxy)-N-methyl-1-azetidinecarboxamide] gave an Electroshock % protected of 0%. In assay [2] (dose 100 mg/kg IP), this compound gave a Metrazole % protected of 0%.
Take `NC(=O)N1CC(Oc2ccc(Cl)cc2Cl)C1` [Example 11, 3-(2,4-Dichlorophenoxy)-1-azetidinecarboxamide]: the Electroshock % protected worked out at 0% in assay [1] (dose 17.8 mg/kg IP) and 100% in assay [1] (dose 31.6 mg/kg IP). Further, the 50% effect level in assay [2] (ED50) was put at a dose of 31.6 mg/kg.
As for `CNC(=O)N1CC(Oc2cc(C(F)(F)F)ccc2F)C1` [Example 19, 3-[2-Fluoro-5-(trifluoromethyl)phenoxy]-N-methyl-1-azetidine-carboxamide], the Electroshock % protected in assay [1] (dose 31.6 mg/kg IP) and in assay [1] (dose 56.2 mg/kg IP) was 50% throughout.
`CNC(=O)N1CC(Oc2cccc(C(F)(F)F)c2)C1` [Example 6, N-Methyl-3-[3-(trifluoromethyl)phenoxy]-1-azetidinecarboxamide] had an ED50 in assay [1] of 29 mg/kg.
On to `CNC(=O)N1CC(Oc2cc(C(F)(F)F)ccc2Cl)C1` [Example 18, 3-[2-Chloro-5-(trifluoromethyl)phenoxy]-N-methyl-1-azetidinecarboxamide], for which the Electroshock % protected is reported as 37.5% in assay [1] (dose 56.2 mg/kg IP) and 50% in assay [1] (dose 100 mg/kg IP).
For the compound `CNC(=O)N1CC(Oc2ccc(Cl)cc2Cl)C1` [Example 13, 3-(2,4-Dichlorophenoxy)-N-methyl-1-azetidinecarboxamide], the ED50 in assay [1] was determined as 18.5 mg/kg; in assay [2], 40.9 mg/kg.
In assay [1], `CN(C)C(=O)N1CC(Oc2ccc(C(F)(F)F)cc2Cl)C1` [Example 4, 3-[2-Chloro-4-(trifluoromethyl)phenoxy]-N,N-dimethyl-1-azetidinecarboxamide] came in with an ED50 of 8.2 mg/kg. Also, the Metrazole % protected was found to be 37.5% in assay [2] (dose 31.6 mg/kg IP), 0% in assay [2] (dose 52 mg/kg IP) and 0% in assay [2] (dose 100 mg/kg IP).
In assay [1], `C=CCNC(=O)N1CC(Oc2ccc(C(F)(F)F)cc2Cl)C1` [Example 3, 3-[2-Chloro-4-(trifluoromethyl)phenoxy]-N-(2-propenyl)-1-azetidinecarboxamide] gave an ED50 of 9.5 mg/kg. The Metrazole % protected in assay [2] (dose 10 mg/kg IP) stood at 12.5%; in assay [2] (dose 36 mg/kg IP), 0%.
As for `Cc1cccc(Cl)c1OC1CN(C(=O)N(C)C)C1` [Example 15, 3-(2-Chloro-6-methylphenoxy)-N,N-dimethyl-1-azetidinecarboxamide], the Electroshock % protected in assay [1] (dose 31.6 mg/kg IP) was 37.5-62.5%.
Consider `CNC(=O)N1CC(Oc2ccc(Cl)cc2)C1` [Example 10, 3-(4-Chlorophenoxy)-N-methyl-1-azetidinecarboxamide], for which the values for the ED50 in assay [1] and in assay [2] were 23.8 mg/kg and 50 mg/kg, respectively.
Take `CNC(=O)N1CC(Oc2ccc(F)cc2Cl)C1` [Example 17, 3-(2-Chloro-4-fluorophenoxy)-N-methyl-1-azetidinecarboxamide]: the ED50 in assay [1] amounted to 44.5 mg/kg; in assay [2], 32.8 mg/kg.
In assay [1], `CNC(=O)N1CC(Oc2c(C)cccc2Cl)C1` [Example 16, 3-(2-Chloro-6-methyphenoxy)-N-methyl-1-azetidinecarboxamide] showed an ED50 of 53 mg/kg.
In the case of `NC(=O)N1CC(Oc2ccc(C(F)(F)F)cc2Cl)C1` [Example 1, 3-[2-Chloro-4-(trifluoromethyl)phenoxy]-1-azetidinecarboxamide], the ED50 worked out at 8.5 mg/kg in assay [1] and 11.5 mg/kg in assay [2].
In assay [1], `CNC(=O)N1CC(Oc2cccc(Cl)c2)C1` [Example 9, 3-(3-Chlorophenoxy)-N-methyl-1-azetidinecarboxamide] came in with an ED50 of 45.5 mg/kg. The compound also came in with a Metrazole % protected in assay [2] (dose 100 mg/kg IP) of 37.5%.
As for `CNC(=O)N1CC(Oc2ccc(C(F)(F)F)cc2)C1` [Example 7, 3-(4-Trifluoromethylphenoxy)-N-methyl-1-azetidinecarboxamide], the ED50 in assay [1] was found to be 25.7 mg/kg; in assay [2] it was 33 mg/kg.
For `CN(C)C(=O)N1CC(Oc2ccc(Cl)cc2Cl)C1` [Example 12, 3-(2,4-Dichlorophenoxy)-N,N,-dimethyl-1-azetidinecarboxamide], the figures for the Electroshock % protected in assay [1] (dose 17.8 mg/kg IP) and in assay [1] (dose 31.6 mg/kg IP) were 0% and 100%, respectively.
